One series concerns the target T1, recombinant D-AAO (Glutamicibacter protophormiae, UniProt Q7X2D3).
T1 construct: The restriction sites NdeI and BamHI were attached to the dao gene by PCR; made in house; host or cells: E. coli BL21(DE3)
Description: Substrate specificity of the recombinant D-AAO (photometric peroxidase/o-dianisidine test). Format: biochemical, Arthrobacter protophormiae. The note with it: for activity at 20000 µM: DL-amino acid, concentration increased to 20 mM; for activity at 20000 µM / activity at 10000 µM: read-out: Relative activity; for Substrate quality (in words): partial substrate spectrum, Table 2; for Stereoselectivity: conversion of L-amino acids by D-AAO: L-amino acids as substrate. As to the method: (§1) To isolate D-AAO-forming microorganisms, soil samples were plated out on a nutrient medium in which coryneform bacteria can be concentrated: Na propionate 0.20 g; KNO3 0.01 g; KH2PO4 0.10 g; NaCl 0.25 g; MgSO4.7 H2O 0.10 g; CaCO3 0.02g; trace elements; vitamin solution; cycloheximide 0.05 g; if appropriate, agar 20.00 g; final pH 7.0. Microorganisms which grew on this medium were then transinoculated into a complex medium (DSM 65) with the following composition (per 1l): glucose 4.00 g; yeast extract 4.00 g; malt extract 10.00 g; agar 20 g; final pH 7.2. The strains were then multiplied in liquid medium (DSM 65), harvested by centrifugation, broken down, and the cell-free supernatant was obtained by centrifugation (=crude extract). This crude extract was then employed as an enzyme source for the photometric test for D-AAO activity. The test batch contained: 20 μl amino acid solution (100 mM); 80 μl TEA/o-dianisidine buffer; 10 μl peroxidase soln. (1,000 U/ml); 70 μl H2O; 20 μl crude extract. The measurement was carried out at 436 nm; 1 U corresponds to an amount of enzyme which converts 1 μmol of amino acid or 1 μmol of o-dianisidine per min (extinction coefficient ε for o-dianisidine=8.1 mM^−1 cm^−1).
A partial substrate spectrum was recorded for D-AAO (Table 2).
The stereoselectivity of the D-AAO was tested with the amino acids L-leucine, L-methionine and L-lysine. […] Thus, the D-AAO from Arthrobacter protophormiae can be described as highly stereoselective for D-amino acids.

The target in another series is T2, partly purified D-AAO (Glutamicibacter protophormiae, UniProt Q7X2D3).
T2 sequence (Q7X2D3 1-326): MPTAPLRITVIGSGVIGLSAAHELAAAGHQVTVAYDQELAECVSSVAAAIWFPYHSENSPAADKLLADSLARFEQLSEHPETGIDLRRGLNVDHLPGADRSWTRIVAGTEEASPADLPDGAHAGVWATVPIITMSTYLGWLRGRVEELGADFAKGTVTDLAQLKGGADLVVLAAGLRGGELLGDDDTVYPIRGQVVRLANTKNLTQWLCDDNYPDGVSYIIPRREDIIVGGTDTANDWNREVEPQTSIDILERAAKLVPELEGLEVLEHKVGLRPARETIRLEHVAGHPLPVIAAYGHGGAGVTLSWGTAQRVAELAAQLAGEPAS
Kind of series: biochemical. The settings on record: read-out: Substrate excess inhibition K1. As to the method:
as §1

A further series has as its target T3, D-AAO (Glutamicibacter protophormiae, UniProt Q7X2D3).
T3 sequence (Q7X2D3 whole entry, looked up): T2 sequence (Q7X2D3 1-326)
Kind of series: Influence of pH on D-AAO activity. The settings on record: three substrates (lysine, phenylalanine, methionine), 10 mM; three 80 mM buffers. Format: biochemical, Arthrobacter protophormiae. As to the method: The enzyme activity was measured with three different substrates in the following 80 mM buffers: ♦ citric acid-sodium phosphate, pH 5–7; ▪ TEA/HCl, pH 7–8.5; ▴ glycine/NaOH, pH 8.5–11. Each D-amino acid tested was employed in a final concentration of 10 mM.
The influence of pH on the activity of the D-AAO with respect to the substrates […] was investigated in three different buffers: citric acid-sodium phosphate […]; TEA/HCl pH 7.0–8.5; and glycine/NaOH pH 8.5–11). The optimum pH for all three substrates was in the weakly basic range, between pH 7.5–8.5 (FIG. 2).

Substrate in series [1]: CSCC[C@@H](N)C(=O)O
Description: purified protein, by the assay type. The note with it: other: partly purified D-AAO.

Series [2] can be described thus: Isoelectric focussing of D-AAO. Format: physicochemical. The settings on record: experimentally determined, polyacrylamide gels pH 4–6. As to the method: A molecular mass for a monomer of the D-AAO of 40 kDA was determined by means of SDS gel electrophoresis. […] The calculated molecular mass of the monomer was 34.6 kDa without and 35.4 kDa with FAD. These values indicate that the enzyme has a dimeric structure. Isoelectric focussing was performed using precast Serva polyacrylamide gels with a narrow pH range (pH 4–6). The experimentally determined pI was 4.4.

Series [3] is described as follows: D-AAO activity assay (specific activity of enzyme preparations). Format: biochemical. As to the method:
as §1
Recombinant D-AAO was purified to homogeneity using a two-step procedure (Table 1). E. coli BL21(DE3) carrying pApdao was disrupted by ultrasonification and cell debris was removed by centrifugation. The cleared supernatant was loaded onto a Q-Sepharose FF column (h 10 cm×Ø 2.6 cm) (Amersham Bioscience), which was equilibrated with 10 mM potassium phosphate buffer pH 7.0 and run at a flow rate of 2 ml/min. The column was washed with 10 mM potassium phosphate buffer pH 7.0 containing 0.2 M NaCl and the D-AAO was eluted by increasing the salt concentration up to 0.35 M. Active fractions were pooled and loaded onto a column, which was packed with ceramic MacroPrep hydroxyapatite, type I (h 8.3 cm×Ø 1.6 cm) (Bio-Rad). The column was equilibrated with 10 mM potassium phosphate buffer pH 6.8 containing 150 mM NaCl and the flow rate was 2 ml/min. The D-AAO was detected in the flow-through.

With `NC(Cc1ccc(F)cc1)C(=O)O` (racemic) [4-Fluoro-DL-phenylalanine], the activity at 20000 µM at recombinant D-AAO was determined as 81%.

`CC(C)(C)C(N)C(=O)O` (racemic) [DL-tert-Leucine]: the activity at 20000 µM at recombinant D-AAO amounted to 0.12%. The same measure, in the same setting: the figure for `CNC(CC(C)C)C(=O)O` (racemic) [N-Methyl-DL-leucine] is 2.1%; for `COCC(N)C(=O)O` (racemic) [O-Methyl-DL-serine] it is 0.33%. For the molecule `C[C@@H](N)C(=O)O` [D-Alanine], at recombinant D-AAO, the activity at 10000 µM amounted to 0.26%. As for `N=C(N)NCCC[C@@H](N)C(=O)O` [D-Arginine], at recombinant D-AAO, the “Substrate quality (in words)” value is reported as “effective in converting” and the activity at 10000 µM turned out to be 80%. For `N[C@H](Cc1c[nH]cn1)C(=O)O` [D-Histidine], at recombinant D-AAO, the activity at 10000 µM amounted to 5.9%. The same measure, in the same setting: then `CC(C)C[C@@H](N)C(=O)O` [D-Leucine], with 12%.

Turning to `NCCCC[C@@H](N)C(=O)O` [D-Lysine], on recombinant D-AAO, the “Substrate quality (in words)” value is listed as “best substrates” and the activity at 10000 µM was 99%. For `CSCC[C@@H](N)C(=O)O` [D-Methionine], in that order: “best substrates” and 100%. On to `N[C@H](Cc1ccccc1)C(=O)O` [D-Phenylalanine], for which the Ki at partly purified D-AAO came out at 55 mM. Besides, at recombinant D-AAO, the “Substrate quality (in words)” value is “effective in converting” and the activity at 10000 µM came out at 54%. On to `O=C(O)[C@H]1CCCN1` [D-Proline], for which the activity at 10000 µM on recombinant D-AAO was found to be 0.25%. On the same count and under the same terms, then `CC(C)[C@@H](N)C(=O)O` [D-Valine], with 0.35%; and `CC[C@H](C)[C@@H](N)C(=O)O` [D-allo-Isoleucine], with 1%. Consider `CC(C)C[C@H](N)C(=O)O` [L-leucine], for which, at recombinant D-AAO, the “Stereoselectivity: conversion of L-amino acids by D-AAO” value was “None of these compounds were converted”. Same read-out and setting: the entry for `NCCCC[C@H](N)C(=O)O` [L-lysine] is “None of these compounds were converted”. Turning to `CSCC[C@H](N)C(=O)O` [L-methionine], the “Stereoselectivity: conversion of L-amino acids by D-AAO” value on recombinant D-AAO is “None of these compounds were converted”.

B1: partly purified D-AAO (Glutamicibacter protophormiae) (protein)
chain: T2 sequence (Q7X2D3 1-326)
What is called Km is the concentration of substrate that gives half-maximal velocity. As to B1, the “Optimum pH” value with D-AAO is given as 7.5–8.5 pH. The Michaelis-Menten constant (Km) in series [1] was determined as 900 µM. The molecule further yielded a pI in series [2] of 4.4. For the same molecule, the Specific activity in series [3] (after Hydroxyapatite (second chromatography), 10 mM D-Met, pH 7.6, 30° C.) came to 180 U/mg; in series [3] (after Q-Sepharose, 10 mM D-Met, pH 7.6, 30° C.), 80 U/mg; in series [3] (after high cell density fermentation of E. coli BL21(DE3) carrying pE1D), 15 U mg^−1; in series [3] (crude extract, E. coli BL21(DE3), 3 g cells, 10 mM D-Met, pH 7.6, 30° C.), 30 U/mg. The “Specific activity in the crude extracts of recombinant cells” value in series [3] (crude extracts of recombinant cells) is recorded as 15–30 U mg^−1. The “Specific D-AAO activity in the crude extract” value in series [3] (shaking flask, E. coli BL21(DE3) pE1D, 100 μM IPTG, 4 h at 30° C.) came to 30 U/mg.

The values are drawn from US7195900B2, “Cloning and expression of D-amino acid oxidase from arthrobacter protophormiae” (Degussa AG, priority 2002, dated 2007).
